Reference: ChEMBL document CHEMBL1132758, “Synthesis and estrogenic activities of novel 7-thiosubstituted estratriene derivatives” (Bioorg Med Chem Lett, 2000)

Experiments:
[1] = target: T1, Estrogen receptor beta (Homo sapiens, UniProt Q92731)
[2] = target: T2, Estrogen receptor (Homo sapiens, UniProt P03372)
T2 sequence (P03372 whole entry): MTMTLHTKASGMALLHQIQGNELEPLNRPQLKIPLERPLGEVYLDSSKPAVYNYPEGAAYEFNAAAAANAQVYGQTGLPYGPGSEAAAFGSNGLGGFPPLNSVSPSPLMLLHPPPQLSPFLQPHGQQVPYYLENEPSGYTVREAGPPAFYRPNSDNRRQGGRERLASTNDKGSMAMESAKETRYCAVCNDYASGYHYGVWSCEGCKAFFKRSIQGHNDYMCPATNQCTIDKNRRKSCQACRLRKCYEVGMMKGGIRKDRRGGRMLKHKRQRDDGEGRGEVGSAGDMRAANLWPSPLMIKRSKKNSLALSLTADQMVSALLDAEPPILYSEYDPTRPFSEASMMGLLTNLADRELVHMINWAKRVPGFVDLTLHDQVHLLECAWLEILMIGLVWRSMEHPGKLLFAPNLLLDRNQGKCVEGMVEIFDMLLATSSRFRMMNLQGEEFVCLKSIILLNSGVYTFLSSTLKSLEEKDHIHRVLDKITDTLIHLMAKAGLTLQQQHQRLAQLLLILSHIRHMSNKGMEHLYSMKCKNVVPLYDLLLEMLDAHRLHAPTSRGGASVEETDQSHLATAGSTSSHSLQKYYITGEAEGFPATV

[3] = target: T2, Estrogen receptor; remark: listed apart in the source
Description: Antagonist effect on transcriptional activation in MCF-7 cells expressing estrogen receptor alpha

[4] = target: T2, Estrogen receptor; conditions: mcf7
[5] = target: T2, Estrogen receptor; remark: listed apart in the source
Description: Agonist effect on transcriptional activation in MCF-7 cells expressing estrogen receptor alpha

[6] = target: T1, Estrogen receptor beta; test: Displacement of [3H]17-beta-estradiol from human Estrogen receptor beta; Not active means no effect at < 1000 nM
[7] = target: T2, Estrogen receptor; conditions: mcf7; remark: listed apart in the source

T1 sequence (Q92731 whole entry): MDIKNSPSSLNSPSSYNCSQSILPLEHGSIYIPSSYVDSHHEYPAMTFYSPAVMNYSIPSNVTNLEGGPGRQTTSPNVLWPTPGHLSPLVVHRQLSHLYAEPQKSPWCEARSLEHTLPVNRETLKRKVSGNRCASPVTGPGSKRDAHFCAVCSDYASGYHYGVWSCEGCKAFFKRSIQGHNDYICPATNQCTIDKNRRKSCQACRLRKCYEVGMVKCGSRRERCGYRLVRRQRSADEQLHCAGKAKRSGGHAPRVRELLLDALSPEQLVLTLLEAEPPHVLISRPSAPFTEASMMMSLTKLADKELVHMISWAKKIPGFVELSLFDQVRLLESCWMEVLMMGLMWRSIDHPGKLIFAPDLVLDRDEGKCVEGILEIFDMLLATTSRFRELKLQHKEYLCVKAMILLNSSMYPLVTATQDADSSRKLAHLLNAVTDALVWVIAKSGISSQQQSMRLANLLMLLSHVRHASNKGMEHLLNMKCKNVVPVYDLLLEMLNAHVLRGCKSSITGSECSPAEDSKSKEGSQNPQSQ

Row | Structure (SMILES) | IC50 [1] | IC50 [2] | IC50 [3] | EC50 [4] | EC50 [5] | IC50 [6] | IC50 [7]
1 | CCCCN(C)C(=O)CCCCCCCCCCS[C@@H]1Cc2cc(O)ccc2[C@H]2CC[C@]3(C)[C@@H](O)CC[C@H]3[C@@H]21 | 9 nM | 9 nM | 3.5 nM | Not Active |  |  | 
2 | CCCCN(C)C(=O)CCCCCCCCCCS[C@@H]1C(=O)c2cc(O)ccc2[C@H]2CC[C@]3(C)[C@@H](O)CC[C@H]3[C@H]12 | 37 nM | 33 nM | 519 nM |  | 28 nM |  | 
3 | CCCCN(C)C(=O)CCCCCCCCCCS[C@H]1[C@@H]2[C@H](CC[C@]3(C)[C@@H](O)CC[C@@H]23)c2ccc(O)cc2[C@H]1O | 32 nM | 32 nM | 316 nM |  | 40 nM |  | 
4 | COc1ccc2c(c1)C[C@@H](Sc1ccc(OCCN3CCCCC3)cc1)[C@@H]1[C@@H]2CC[C@]2(C)[C@@H](O)CC[C@@H]12 |  |  |  |  |  | Not Active | 
5 | C[C@]12CC[C@@H]3c4ccc(O)cc4C(O)[C@@H](Sc4ccc(Br)cc4)[C@H]3[C@@H]1CC[C@@H]2O (some centres not stated) | 63 nM | 397 nM |  |  | 7 nM |  | Not Active
6 | CN(C)C(=O)/C=C/c1ccc(S[C@@H]2Cc3cc(O)ccc3[C@H]3CC[C@]4(C)[C@@H](O)CC[C@H]4[C@@H]32)cc1 | 59 nM | 94 nM |  |  | 173 nM |  | Not Active
7 | CC(=O)O[C@H]1CC[C@H]2[C@@H]3[C@H](Sc4ccc(Br)cc4)C(=O)c4cc(O)ccc4[C@H]3CC[C@]12C |  |  |  |  |  | Not Active | Not Active
8 | C[C@]12CC[C@@H]3c4ccc(O)cc4C[C@@H](Sc4ccc(/C=C/C(=O)O)cc4)[C@H]3[C@@H]1CC[C@@H]2O | 21 nM | 46 nM |  |  | 13 nM |  | Not Active
